According to patent publication US10675286B2, “Heterocyclic compounds and uses thereof” (Infinity Pharmaceuticals, Inc., priority 2014, dated 2020):
pIC50: −log10 of the molar value. Entries after “also recorded” stand apart in the source; their conditions may differ. Where two headings read alike, the source gives them in different places.

Tests used:
[1] = Dose-exposure proportionality (FIG. 44); conditions: in vivo
[2] = system: CXCL12 induced p-AKT in bone marrow derived macrophages; test: CXCL12-induced p-AKT induction assay in differentiated, polarized macrophages; format: cell-based, mouse; conditions: Mus musculus, Macrophage
Excerpt: Long bones from young C57B6 mice were harvested and bone marrow was extruded by gentle lavage of the bone marrow cavities with a 28 gauge needle. Red blood cells were removed using red blood cell lysis buffer (Sigma). Bone marrow cells were differentiated to macrophages using MCSF for 6 days (RPMI and 20% FCS) with one media change (with removal of all non-adherent cells) at day 3. Macrophages were polarized into M0 (MCSF), M1 (MCSF, IFNγ, and LPS for 1 day), or M2 (MCSF, IL4 for 2 days).
Polarized macrophages were lifted with Acutase, and plated at 0.5M cells per well (0.5 ml) in a deep well (2 ml) non adherant plate in polarization media for 1 hour. […] CXCL12 was added, and the cells were mixed on a plate shaker for 2 minutes. 1 ml of 37 degree FACS Lyse/fix buffer (BD bioscience) was added and the plate was mixed for 1 minute. The plates were spun and decanted and frozen at −80° C. Phospho AKT staining with anti Phospho AKT 473 PERCP labeled (Cell Signaling Technologies) was performed and measured by flow cytometry. Total cell MFI was used to calculate the effect of tested compound on CXCL12 induction of phospho AKT.

[3] = Oral pharmacokinetics of Compound BB in rat; format: in vivo; conditions: 7.5 mg/kg oral
Excerpt: (§1) Compound BB's oral exposure is high in rat, dog and monkey. Good oral bioavailability and low clearance in rodent and non-rodent animal species results in high oral exposure.

[4] = system: RANKL driven differentiation of osteoclasts; test: Osteoclast differentiation assay (TRAP) from bone marrow macrophages; format: cell-based, mouse; conditions: 6 days
Procedure: Long bones from young C57B6 mice were harvested and bone marrow was extruded by gentle lavage of the bone marrow cavities with a 28 gage needle. The cells were screened, and red blood cells were removed using red blood cell lysis buffer (Sigma). Bone marrow cells were differentiated to macrophages using 20 ng/ml mouse MCSF (RnD systems) for 3 days (RPMI and 20% FCS). The cell were washed with PBS, and lifted with Accutase for 10 minutes.
The bone marrow macrophage cells were plated at 150,000 cells per well in a 96 well plate in a MEM 10% FCS. […] Then 25 ng/ml mouse MCSF with or without mouse RANKL (100 ng/ml, RnD systems) was added for 6 days. Media changes (including drugs) were done at day 3 and day 5. The cells were then fixed and stained with the tartrate resistant acid phosphatase (TRAP) assay kit from Sigma according to the manufactures instructions. TRAP positive cells (osteoclasts and cells undergoing an osteoclastic differentiation) in a transect of the triplicate wells (at 20× […]) were manually counted by going through the widest part of each well.

[5] = Oral pharmacokinetics of Compound BB in monkey; format: in vivo; conditions: 5 mg/kg oral
Excerpt: as §1

Farage cell line = test: Combination isobologram in Farage cell line; format: cell-based; conditions: combination of Compound AA and Compound BB
TMD8 cell line = test: Combination isobologram in TMD8 cell line; format: cell-based; conditions: combination of Compound AA and Compound BB
P-GP (P-glycoprotein 1) = P-GP (P-glycoprotein 1) (Homo sapiens (Human), UniProt P08183); test: P-gp inhibition; format: in vitro ADME
P-GP (P-glycoprotein 1), sequence (P08183 whole entry, species assumed): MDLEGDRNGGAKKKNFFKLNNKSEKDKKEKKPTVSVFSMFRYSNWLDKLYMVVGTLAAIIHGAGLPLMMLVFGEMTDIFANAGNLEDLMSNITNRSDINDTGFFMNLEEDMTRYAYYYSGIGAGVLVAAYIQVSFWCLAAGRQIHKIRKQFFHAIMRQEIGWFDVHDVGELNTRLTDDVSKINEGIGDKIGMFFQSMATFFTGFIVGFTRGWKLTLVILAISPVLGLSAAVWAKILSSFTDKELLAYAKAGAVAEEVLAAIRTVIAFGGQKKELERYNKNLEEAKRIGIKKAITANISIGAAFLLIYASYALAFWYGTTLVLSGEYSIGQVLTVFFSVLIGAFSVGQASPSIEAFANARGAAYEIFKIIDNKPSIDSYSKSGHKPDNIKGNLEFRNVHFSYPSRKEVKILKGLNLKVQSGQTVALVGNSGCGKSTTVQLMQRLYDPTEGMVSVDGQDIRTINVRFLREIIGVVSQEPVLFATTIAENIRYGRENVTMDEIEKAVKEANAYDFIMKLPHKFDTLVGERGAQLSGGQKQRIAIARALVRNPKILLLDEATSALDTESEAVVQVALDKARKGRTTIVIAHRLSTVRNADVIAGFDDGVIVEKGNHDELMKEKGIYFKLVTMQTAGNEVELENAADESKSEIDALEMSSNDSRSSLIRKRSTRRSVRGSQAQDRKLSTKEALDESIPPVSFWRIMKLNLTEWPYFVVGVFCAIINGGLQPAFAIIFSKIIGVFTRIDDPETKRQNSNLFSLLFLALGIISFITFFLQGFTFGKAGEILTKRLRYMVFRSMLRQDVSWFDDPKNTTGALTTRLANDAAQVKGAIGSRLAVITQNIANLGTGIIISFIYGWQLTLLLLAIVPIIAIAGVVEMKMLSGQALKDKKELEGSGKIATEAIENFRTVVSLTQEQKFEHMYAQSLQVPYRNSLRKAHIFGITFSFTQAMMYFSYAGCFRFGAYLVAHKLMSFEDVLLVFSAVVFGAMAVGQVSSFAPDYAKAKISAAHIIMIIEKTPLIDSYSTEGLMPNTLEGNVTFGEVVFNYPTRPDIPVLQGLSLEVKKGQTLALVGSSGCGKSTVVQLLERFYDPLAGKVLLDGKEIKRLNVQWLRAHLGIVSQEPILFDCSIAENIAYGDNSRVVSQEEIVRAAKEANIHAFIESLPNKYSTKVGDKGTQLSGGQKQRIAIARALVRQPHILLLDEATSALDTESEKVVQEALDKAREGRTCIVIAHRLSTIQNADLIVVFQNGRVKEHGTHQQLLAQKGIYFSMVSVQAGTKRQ

[6] = system: T cell proliferation suppressed by CT26 tumor cells; test: Ex vivo T cell proliferation (CFSE) with cells of CT26 tumors; format: cell-based, mouse; conditions: vs tumor cells from vehicle treated mice
Procedure: CT26 was an N-nitroso-N-methylurethane-(NNMU)induced, undifferentiated colon carcinoma cell line. It was cloned to generate the cell line designated CT26.WT (ATCC CRL-2638).
The duration of the study was 1 week under treatment. 5-6 week old female, Balb/c mice (Jackson Labs) implanted subcutaneously with 5×10^5CT26 cells in 100 μl PBS. CT26 cells were cultured in RPMI supplemented with 10% FBS. Dosing commenced when tumors reached an average volume of 500-600 mm^3.
For group 3 (αPD-L1), the mice were dosed once, IP, 200 ug (200 uL from 1 mg/ml stock).
Mice were monitored daily for adverse clinical effects. Body weights and tumor luminescent were measured two times per week. At the end of the study, tumors were harvested and cut into 3 parts; one piece for CTL killing assay, one piece for CSFE proliferation assay and one piece (split into two) for OCT/FFPE.
Spleens from 3 vehicle treated tumor bearing mice were physically dissociated in T cell media and passed through a 70 micron filter. After red cell lysis, the cells were pooled, brought up in PBS and stained with CFSE (invitrogen). After washing, these cells were brought up in 20 ml T cell media. Half the cells received Dynal mouse activator beads (CD3/CD28 crosslinking at a 1:1 concentration). CD3/CD28 beads induce proliferation in splenocytes from tumor bearing mouse (data not shown). […]

LLC tumor brei = LLC tumor brei model, immune cells in tumors; format: in vivo
GL-261 glioma = GL-261 glioma model, Compound BB with or without temozolomide; format: in vivo, mouse; conditions: Compound BB 15 mg/kg QD PO, from start or following temozolomide, vs vehicle
Procedure: TMZ was dosed IP 1×/day for 7 days.
Animals: C57 Albino mice (male) from Jackson Labs, n=80. Parameters Evaluated:
In life: Mice were dosed QD with Compound BB. Temozolomide was dosed QD IP, for 7 days. Tumor measurements and bodyweights were taken 2×/week, but caliper and xenogen measurements.
End point analysis: Tumors were cut in half. One half was cut in half again with ½ fixed in 10% NBF the other was frozen in OCT for frozen sections. The remaining half was processed to single cell suspention and evaluated by FACS.
PD satellite group—8 mice from the TMZ treated mice and 8 mice from the vehicle treated mice were sacrificed on day 7 post treatment. Tumors were processed to single cell suspention and evaluated by FACS.

[7] = system: collagen induced arthritis; test: Rat collagen induced arthritis (CIA) model
4T1 breast cancer = test: Subcutaneous 4T1 breast cancer model; format: in vivo
[8] = system: spleen T cell proliferation; test: Ex vivo T-cell proliferation assay with tumor-derived cells; format: cell-based; conditions: compared to tumor derived cells from vehicle treated mice

Question: Which dose-exposure relationship [1] does the source give for `C[C@H](NC(=O)c1c(N)nn2cccnc12)c1cc2cccc(C#Cc3cnn(C)c3)c2c(=O)n1-c1ccccc1` [Compound BB] here?
Answer: dose-exposure proportionality

Question: And the pIC50 ([2]; read-out: IC50, CXCL12 induced p-AKT, differentiated and M1 polarized macrophage)?
Answer: ~7.85

Question: And the pIC50 ([2]; read-out: IC50, CXCL12 induced p-AKT, differentiated and M2 polarized macrophage)?
Answer: ~8.08

Question: What about the “Oral exposure (plasma concentrations within 24 hours, FIG. 43)” value [3] of the same compound?
Answer: high

Question: And the “RANKL driven differentiation of osteoclasts (TRAP positive cells, FIG. 17)” value [4]?
Answer: prevents RANKL driven differentiation of osteoclasts

Question: What about the “Oral exposure (plasma concentrations within 24 hours, FIG. 43)” value [5] of the same compound?
Answer: high

Question: And the “effect of the combination (isobologram)” value (Farage cell line)?
Answer: synergistic effect

Question: What about the “effect of the combination (isobologram)” value (TMD8 cell line) of the same compound?
Answer: synergistic effect

Question: And the “P-GP (P-glycoprotein 1) inhibition” value (P-GP (P-glycoprotein 1))?
Answer: appears to be an inhibitor of P-GP

Question: And the “Inhibition of spleen T cell proliferation by tumor cells of treated mice (FIGS. 55, 56)” value [6]?
Answer: less inhibitory of spleen T cell proliferation; also recorded: can release the suppression

Question: And the “CD206+ M2 polarized suppressive macrophages” value (LLC tumor brei)?
Answer: reduces

Question: And the TAMs in tumor (LLC tumor brei)?
Answer: decreased

Question: And the “Tumor volume (FIGS. 53, 54)” value (GL-261 glioma)?
Answer: effective in reducing the tumor volume; also recorded: significant reduction in tumor volume

Question: What about the ED50 ([7]; Rattus norvegicus) of the same compound?
Answer: 2.13 mg/kg

Question: And the “Mean ankle diameter (FIG. 1)” value ([7]; rat CIA, day 9 to day 17)?
Answer: has therapeutic effects

Question: What about the tumor growth (4T1 breast cancer; co-administration with docetaxel, paclitaxel, or 5-FU) of the same compound?
Answer: further reduction in tumor growth

Question: And the “activity in subcutaneous 4T1 breast cancer model” value (4T1 breast cancer; single agent)?
Answer: single agent activity

Question: And the “inhibition of spleen T cell proliferation by cells isolated from tumors of treated mice” value [8]?
Answer: less inhibitory
